Laboratory results taken from patent US20220106296A1, “CYANOTRIAZOLE COMPOUNDS AND USES THEREOF” (Novartis AG, priority 2018, published 2022).

Tests used:
[1] = test system: stage I mouse model, hemolymphatic (blood stream) form of human infection; assay: Stage I mouse model of HAT; assay type: in vivo
From the text: (§1) Based on the favorable in vitro and in vivo pharmacological properties, selected cyanotraizole compounds were chosen for testing in stage I and stage II mice models. The stage I mouse model represents the hemolymphatic (blood stream) form of human infection.

[2] = test system: T. b. brucei Lister427 bloodstream form parasites; assay: T. b. brucei growth inhibition assay (CellTiter-Glo, 48 hours); assay type: cell-based; settings: Trypanosoma brucei
How it was run: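 1×10^4 bloodstream-form parasites/well in HMI-9 medium exposed to 10-point, 3-fold compound dilutions for 48 h at 37 °C, 5% CO2. Parasite number quantified as intracellular ATP by CellTiter-Glo luminescence, normalized to DMSO controls for IC50 calculation.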

[3] = test system: intracellular T. cruzi amastigotes; assay: T. cruzi amastigote growth inhibition assay (NIH 3T3 host cells, β-galactosidase readout); assay type: cell-based; settings: Trypanosoma cruzi, NIH3T3, read-out: (c) T.c.* IC50
Experimental: NIH 3T3 fibroblast cells (ATCC) were maintained in RPMI-1640 medium (Life Technologies) supplemented with 10% heat-inactivated fetal bovine serum and 100 IU penicillin/100 μg/ml streptomycin at 37° C./5% CO2. T. cruzi Tulahuen parasites constitutively expressing E. coli β-galactosidase were maintained in tissue culture as an infection in NIH 3T3 fibroblast cells. Briefly, 2×10^7 T. cruzi trypomastigotes were used to infect 6×10^5 NIH 3T3 cells growing in T75 CELLSTAR tissue culture flasks and cultured at 37° C./5% CO2 until proliferating intracellular parasites lysed host 3T3 cells and were released into the culture medium (typically 6-7 days). During the infection, the tissue culture medium was changed every two days. Number of T. cruzi trypomastigotes present in 1 ml of medium was determined using a haemocytometer.
To determine compound potency on intracellular T. cruzi amastigotes, NIH 3T3 cells were re-suspended in phenol red-free RPMI-1640 medium containing 3% heat-inactivated fetal bovine serum and 100 IU penicillin/100 μg/ml streptomycin, seeded at 1,000 cells/well (40 μl) in white, clear bottom 384-well plates (Greiner Bio-One), and incubated overnight at 37° C./5% CO2. The following day, 100 nl of each compound in DMSO were transferred to individual plate wells by Echo 555 acoustic liquid handling system. After one hour incubation, 1×10^6 of tissue culture-derived T. cruzi trypomastigotes, in 10 μl of phenol red-free RPMI-1640 medium supplemented with 3% heat-inactivated fetal bovine serum and 100 IU penicillin/100 μg/ml streptomycin were added to each well. Plates were then incubated for 6 days at 37° C./5% CO2. Intracellular T. cruzi parasites were quantified by measuring the activity of parasite-expressed β-galactosidase. Ten microliters of a chromogenic β-galactosidase substrate solution (0.6 mM chlorophenol red-β-D-galactopyranoside/0.6% NP-40 in PBS; both reagents from Calbiochem) were added to each well and incubated for 2 h at room temperature. After incubation, absorption was measured at 570 nm on SpectraMax M2 plate reader (Molecular Devices). Measured absorbance values in wells with compounds were divided by the average absorbance value of the plate DMSO controls, and used for calculation of compound EC50 values as described above.

[4] = test system: stage II mouse model, CNS form of the disease; assay: Stage II mouse model of HAT; assay type: in vivo
From the text: as §1

T.b. gambinese STIB930 = assay: T.b. gambiense growth inhibition assay; assay type: cell-based; settings: Trypanosoma brucei, read-out: (b) T.b.g* IC50
Experimental: Bloodstream form of T. b. brucei Lister427 strain was obtained from the Genomics Institute of the Novartis Research Foundation. This strain was used for carrying out growth inhibition and kill kinetics assays. T. b. gambiense STIB930 and T. b. rhodesiense STIB900 were obtained from Swiss TPH, were used for carrying out the growth inhibition assays. Bloodstream form of T. b. gambiense and T. b. rhodesiense were also grown in HMI-9 media, described above, but the media was supplemented by 5% human serum and 5% heat-inactivated FBS instead of 10% FBS. To determine compound growth inhibitory potency on T. b. brucei Lister427 bloodstream form parasites, 200 nL of 10-point, 3 fold serially diluted compounds in DMSO were transferred to the wells of white, solid bottom 384-well plates (Greiner Bio-One) by either Echo 555 acoustic liquid handling system or Mosquito. Then, 1×10^4 of T. b. brucei parasites in 40 μL of HMI-9 medium were added to each well, and the plates were incubated for 48 hours at 37° C. in 5% CO2 incubators. Parasite numbers in individual plate wells were determined through quantification of intracellular ATP amount. The CellTiter-Glo luminescent cell viability reagent (Promega) was added to plate wells, and ATP-dependent luminescence signal was measured on Tecan M1000 plate Reader after 30 min incubation. Luminescence values in wells with compounds were divided by the average luminescence value of the plate DMSO controls, and used for calculation of compound IC50 values. Similar assay was also used for determining IC50 against T.b. gambinese STIB930 and T. b. rhodesiense STIB900 strains, but the initial concentration of cells used was 3×10^4 parasites/ml.

[5] = test system: Leishmania donovani axenic amastigote; assay: Growth inhibition of Leishmania donovani axenic amastigote; assay type: cell-based; settings: L. donovani growth inhibition, read-out: (d) L.d* IC50
Experimental: Leishmania donovani axenic amastigote parasites are grown at 37° C., 5% CO2 in media made of RPMI 1640, 4 mM L-glutamine, 20% heat inactivated FBS, 100 units/ml of penicillin and 100 μg/ml of streptomycin, 23 μM Folic Acid, 100 μM Adenosine, 22 mM D-glucose, 25 mM MES. The pH of media is adjusted to 5.5 at 37° C. using HCl. 20 μL of media is first dispensed into 384 well plates and 100 nL of the compounds of invention in DMSO are added to the plate wells. At the same time control compounds and DMSO are added to plates to serve as the positive and negative controls, respectively. 40 μL of parasite culture (9600 parasites) are then added to the plate wells. The plates are then placed into incubators. After 2 day incubation, 20 μL of Cell TiterGlo (Promega) is added to the plate wells. The luminescence signal of each well is measured using the Envision reader (Perkin Elmer). The percentage inhibition of 50%, EC50, is calculated for each of the compounds.

| Structure (SMILES) | cure in stage I mouse model ([1]; 10 mg/kg QD) | IC50 [2] | IC50 [3] | cure in stage II mouse model ([4]; 10 mg/kg QD) | IC50 (T.b. gambinese STIB930) | cure in stage I mouse model ([1]; 10 mg/kg BID) | IC50 [5] | cure in stage II mouse model ([4]; 100 mg/kg QD) | cure in stage II mouse model ([4]; 15 mg/kg QD) |
| --- | --- | --- | --- | --- | --- | --- | --- | --- | --- |
| N#Cc1ncn(CC(=O)N2Cc3ccc(-c4cc(F)cnc4C(F)(F)F)cc3C2)n1 [Example 8, 1-(2-(5-(5-fluoro-2-(trifluoromethyl)pyridin-3-yl)isoindolin-2-yl)-2-oxoethyl)-1H-1,2,4-triazole-3-carbonitrile] | complete cure without relapse | 100 to 1000 nM | 100 to 1000 nM | complete cure without relapse |  |  |  |  |  |
| N#Cc1ncn(CC(=O)N2Cc3ccc(-c4ccc(F)cc4C(F)(F)F)cc3C2)n1 [Example 29, 1-(2-(5-(4-fluoro-2-(trifluoromethyl)phenyl)isoindolin-2-yl)-2-oxoethyl)-1H-1,2,4-triazole-3-carbonitrile] |  | < 100 nM | < 100 nM |  | 100 to 1000 nM | complete cure without relapse | ≥ 1000 nM | complete cure without relapse |  |
| N#Cc1ncn(CC(=O)N2Cc3ccc(-c4cc(F)c(F)cc4Cl)cc3C2)n1 [Example 30, 1-(2-(5-(2-chloro-4,5-difluorophenyl)isoindolin-2-yl)-2-oxoethyl)-1H-1,2,4-triazole-3-carbonitrile] |  | < 100 nM | < 100 nM |  | 100 to 1000 nM |  | ≥ 1000 nM |  |  |
| COc1ccc(-c2ccc3c(c2)CN(C(=O)Cn2cnc(C#N)n2)C3)c(C(F)(F)F)c1 [Example 31, 1-(2-(5-(4-methoxy-2-(trifluoromethyl)phenyl)isoindolin-2-yl)-2-oxoethyl)-1H-1,2,4-triazole-3-carbonitrile] |  | < 100 nM | < 100 nM |  | 100 to 1000 nM |  | ≥ 1000 nM |  |  |
| N#Cc1ncn(CC(=O)N2Cc3ccc(-c4ccccc4Cl)cc3C2)n1 [Example 33, 1-(2-(5-(2-chlorophenyl)isoindolin-2-yl)-2-oxoethyl)-1H-1,2,4-triazole-3-carbonitrile] |  | 100 to 1000 nM | < 100 nM |  | 100 to 1000 nM |  | ≥ 1000 nM |  |  |
| COc1ccc(-c2ccc3c(c2)CN(C(=O)Cn2cnc(C#N)n2)C3)c(Cl)c1 [Example 34, 1-(2-(5-(2-chloro-4-methoxyphenyl)isoindolin-2-yl)-2-oxoethyl)-1H-1,2,4-triazole-3-carbonitrile] |  | 100 to 1000 nM | < 100 nM |  | 100 to 1000 nM |  | ≥ 1000 nM |  |  |
| N#Cc1ncn(CC(=O)N2Cc3ccc(-c4ccc(F)cc4Cl)cc3C2)n1 [Example 37, 1-(2-(5-(2-chloro-4-fluorophenyl)isoindolin-2-yl)-2-oxoethyl)-1H-1,2,4-triazole-3-carbonitrile] |  | 100 to 1000 nM | < 100 nM |  | 100 to 1000 nM |  |  |  |  |
| N#Cc1ncn(CC(=O)N2Cc3ccc(-c4ccc(Cl)cc4Cl)cc3C2)n1 [Example 38, 1-(2-(5-(2,4-dichlorophenyl)isoindolin-2-yl)-2-oxoethyl)-1H-1,2,4-triazole-3-carbonitrile] |  | 100 to 1000 nM | < 100 nM |  | 100 to 1000 nM |  | ≥ 1000 nM |  |  |
| N#Cc1ccc(F)c(-c2ccc3c(c2)CN(C(=O)Cn2cnc(C#N)n2)C3)c1 [Example 41, 1-(2-(5-(5-cyano-2-fluorophenyl)isoindolin-2-yl)-2-oxoethyl)-1H-1,2,4-triazole-3-carbonitrile] |  | 100 to 1000 nM | < 100 nM |  | 100 to 1000 nM |  | ≥ 1000 nM |  |  |
| N#Cc1ncn(CC(=O)N2Cc3ccc(-c4cc(F)c(F)cc4F)cc3C2)n1 [Example 45, 1-(2-oxo-2-(5-(2,4,5-trifluorophenyl)isoindolin-2-yl)ethyl)-1H-1,2,4-triazole-3-carbonitrile] |  | 100 to 1000 nM | 100 to 1000 nM |  | 100 to 1000 nM |  |  |  |  |
| N#Cc1ncn(CC(=O)N2Cc3ccc(-c4cccnc4C(F)(F)F)cc3C2)n1 [Example 85, 1-(2-oxo-2-(5-(2-(trifluoromethyl)pyridin-3-yl)isoindolin-2-yl)ethyl)-1H-1,2,4-triazole-3-carbonitrile] | complete cure without relapse | < 100 nM | < 100 nM |  | < 100 nM |  | ≥ 1000 nM |  | complete cure without relapse |
